Assay results taken from ChEMBL document CHEMBL5728688, “Substituted pyridines as TYK2 inhibitors” (2021).

Molecular target: Non-receptor tyrosine-protein kinase TYK2 (Homo sapiens, UniProt P29597)
Test: TYK2 JH2 Domain Binding Assay: DiscoverX's KINOMEscan™ is a popular platform for kinase profiling, frequently used in academic and industry witnessed by publications, therefore we selected this platform as a primary cell-free screening assay to determine the relative binding potency and guide chemistry SAR.Developed by DiscoverX, KINOMEscan™ employs proprietary active-site dependent competition binding assays to determine how compounds bind to kinases. KINOMEscan™ is based on a competition binding assay that quantitatively measures the ability of a compound to compete with an immobilized, active site directed ligand. The assay is performed by combining three components: DNA-tagged kinase; immobilized ligand; and a test compound. […] The liganded beads were blocked with excess biotin and washed with blocking buffer (SeaBlock (Pierce), 1% BSA, 0.05% Tween 20, 1 mM DTT) to remove unbound ligand and to reduce non-specific binding. […] Test compounds were prepared as 111× stocks in 100% DMSO. All test compounds were shipped to DiscoverX in DMSO with concentration of 10 mM. […] Each compound was tested in duplicate. […] The compounds were then diluted directly into the assays such that the final concentration of DMSO was 0.9%. All reactions performed in polypropylene 384-well plate. Each was a final volume of 0.02 ml. […] […]

Non-receptor tyrosine-protein kinase TYK2, sequence (P29597 whole entry, the tested form may be a part): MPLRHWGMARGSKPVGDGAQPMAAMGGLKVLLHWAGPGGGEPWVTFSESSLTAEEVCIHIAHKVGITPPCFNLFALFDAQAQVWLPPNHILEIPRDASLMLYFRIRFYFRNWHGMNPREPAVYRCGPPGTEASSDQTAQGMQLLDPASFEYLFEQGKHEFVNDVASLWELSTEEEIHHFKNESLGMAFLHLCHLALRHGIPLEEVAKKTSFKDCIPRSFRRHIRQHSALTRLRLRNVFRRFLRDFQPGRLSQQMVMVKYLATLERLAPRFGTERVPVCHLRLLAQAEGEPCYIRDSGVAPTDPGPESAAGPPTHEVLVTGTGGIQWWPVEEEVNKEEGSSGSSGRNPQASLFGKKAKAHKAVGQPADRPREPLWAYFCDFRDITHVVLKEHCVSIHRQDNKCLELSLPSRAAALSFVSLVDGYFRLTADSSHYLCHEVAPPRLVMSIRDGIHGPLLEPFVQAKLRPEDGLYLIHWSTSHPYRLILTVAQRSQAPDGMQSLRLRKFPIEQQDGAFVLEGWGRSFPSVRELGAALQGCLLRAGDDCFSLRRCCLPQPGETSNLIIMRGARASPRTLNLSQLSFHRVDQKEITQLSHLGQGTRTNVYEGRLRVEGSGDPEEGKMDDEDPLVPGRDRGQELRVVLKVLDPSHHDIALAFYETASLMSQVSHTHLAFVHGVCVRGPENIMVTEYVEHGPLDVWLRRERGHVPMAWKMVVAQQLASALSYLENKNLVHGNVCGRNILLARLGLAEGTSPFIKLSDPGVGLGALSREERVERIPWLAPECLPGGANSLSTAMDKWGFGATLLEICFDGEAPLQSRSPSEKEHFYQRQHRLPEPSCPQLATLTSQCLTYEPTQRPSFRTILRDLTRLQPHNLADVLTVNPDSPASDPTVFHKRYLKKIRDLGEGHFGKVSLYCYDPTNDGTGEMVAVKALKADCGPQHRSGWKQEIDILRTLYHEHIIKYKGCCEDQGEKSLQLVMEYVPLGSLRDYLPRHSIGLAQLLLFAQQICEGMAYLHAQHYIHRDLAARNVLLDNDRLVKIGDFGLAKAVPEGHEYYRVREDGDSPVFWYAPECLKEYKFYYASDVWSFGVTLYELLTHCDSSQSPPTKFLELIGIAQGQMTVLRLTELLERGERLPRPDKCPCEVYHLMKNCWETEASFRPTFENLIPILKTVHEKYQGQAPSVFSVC

CNC(=O)c1nnc(N2CCC(C)(C)C2=O)cc1Nc1cccc(-c2ncn(C)n2)c1OC
Kd: < 1 nM
